Source: patent US12642860B2, “Filamentous nanostructures and their use for treatment of pulmonary disease” (THE JOHNS HOPKINS UNIVERSITY, priority 2019, dated 2026)

Experiments:
[1] = Jet nebulizer release profile and output; format: physicochemical; details: within KPA filaments 1 mM
Description: FIGS. 24A-24F are jet nebulizer release profiles of EPA, OPA, and KPA supramolecular filaments with starting formulation concentrations at (24A) 10 μM, (24B) 100 μM, and (24C) 1000 μM, showing a linear release pattern for each system over the course of a 10 min nebulization event (3 mL solution). Data given represent mean #SD (n=3); dashed lines represent line of best fit from linear regression analysis. (24D) The aerosol output rate (μg/min) of the supramolecular filaments from a jet nebulizer at different formulation concentrations, showing no statistically significant difference (ns) between filaments at the same concentration and output rate scales linearly with increasing concentration. Data are given as mean±SD (p>0.05 amongst filament systems, ****p<0.0001 amongst concentrations, two-way ANOVA, n=3). […]
We next monitored the release pattern of the supramolecular filaments in aerosol droplets from a jet nebulizer device alongside the output rate. First analyzing the blank EPA, OPA, and KPA filaments, 3 mL solutions of the filaments were loaded into a jet nebulizer at varying concentrations and the remaining concentration of PA molecules and fluid weight loss were monitored over the course of a 10 min nebulization event. FIGS. 24A-C represents the measured release profile of the three filament systems at 10 µM, 100 μM, and 1000 μM, respectively. […]

[2] = Loading capacity of drugs/dye within KPA filaments; format: physicochemical; details: encapsulated in KPA filaments, % by mass
From the text: FIGS. 20A-20C show (20A) the molecular structure of the lung disease-relevant drugs and fluorescent dye used in loading within the supramolecular filaments: paclitaxel (PTX, MW=853.92 g/mol), the anticancer drug; coumarin 6 (Cou6, MW=350.44 g/mol), the green fluorescent dye; and budesonide (BUD, MW=430.54 g/mol), the anti-inflammatory glucocorticoid used to treat symptoms of asthma and chronic obstructive pulmonary disease (top). (20B) The encapsulation process of hydrophobic drugs and dyes within supramolecular peptide amphiphile (PA)-based filaments, where dissolution of PA monomers and drug/dye in aqueous solutions results in their self-assembly with the drug/dye loaded within the hydrophobic core (left). The loading capacity of PTX, Cou6, and BUD based on mass (left axis, solid bars) and mole (right axis, checkered bars) percent within KPA supramolecular filaments (right). Data are given as mean±SD (n=5). (20C) Representative transmission electron microscopy (TEM) images of KPA filaments loaded with PTX (i, ii), Cou6 (iii, iv), and BUD (v, vi) before and after nebulization at 500 μM. Diameters are given as mean±SD (n=35).
With better insight into nebulization stability and the mechanism of supramolecular filament breakdown, we next sought to assess whether these systems can successfully carry drugs and dyes within aerosol droplets for potential inhalation-based therapies. […]

CCN(CC)c1ccc2cc(-c3nc4ccccc4s3)c(=O)oc2c1 [Cou6, coumarin 6]
aerosol output rate of encapsulated molecules [1]: comparable but higher than PTX
loading capacity by mass within KPA filaments [2]: 3.7%
